These results are taken from publication PMC7072648, “N-(2-Hydroxyphenyl)-1-[3-(2-oxo-2,3-dihydro-1H- benzimidazol-1-yl)propyl]piperidine-4-Carboxamide (D2AAK4), a Multi-Target Ligand of Aminergic GPCRs, as a Potential Antipsychotic” (Biomolecules, 2020).

Data set [1] concerns the target T1, human D2S receptor (Homo sapiens, UniProt P14416).
T1 construct: expressed in transfected cells
As to the kind of experiment: Radioligand binding assay at human D2 receptor. As to conditions: mean ± SEM, two independent experiments in duplicate; read-out: pKi hD2 (converted). Here is the method: Radioligand binding assays were performed on cell membrane preparations from cell lines stably expressing the human cloned receptors. Chinese hamster ovary K1 (CHO-K1) cell lines stably expressing human D2S, 5-HT2A or H1 receptors and human embryonic kidney 293 (HEK293) cell lines stably expressing human 5-HT1A or 5-HT7(a) receptors were in-house available, whereas CHO-K1 cell lines stably expressing human D1 or D3 receptors (Perkin Elmer, Waltham, MA, USA) and Chem-1 cell line stably expressing human M1 receptor (Millipore, Merck KGaA, Darmstadt, Germany) were commercially available. Experimental conditions for binding assays at D1, D2, D3, 5-HT1A and 5-HT2A receptors have been previously reported. 0.7 nM [^3H]-SCH23390, 2 nM [^3H]-SB269970 (5-HT7), 2 nM [^3H]-Pyrilamine (H1) and 2 nM [^3H]-Pirenzepine (M1) were employed as radioligands. […] Affinity (equilibrium dissociation constant (Ki) and pKi (−logKi)) values were calculated as previously reported. Affinity values of reference compounds that were assayed in parallel to D2AAK4 as internal controls in the binding assays are given in Supplementary Figure S1 (legend).

The target of another data set is human D1 receptor (Homo sapiens, UniProt P21728). As to the kind of experiment: Radioligand binding assay at human D1 receptor. As to conditions: mean ± SEM, two independent experiments in duplicate; read-out: pKi hD1 (converted). Here is the method: (§1) Radioligand binding assays were performed on cell membrane preparations from cell lines stably expressing the human cloned receptors. […] Experimental conditions for binding assays at D1, D2, D3, 5-HT1A and 5-HT2A receptors have been previously reported. 0.7 nM [^3H]-SCH23390, 2 nM [^3H]-SB269970 (5-HT7), 2 nM [^3H]-Pyrilamine (H1) and 2 nM [^3H]-Pirenzepine (M1) were employed as radioligands. […] Affinity (equilibrium dissociation constant (Ki) and pKi (−logKi)) values were calculated as previously reported. Affinity values of reference compounds that were assayed in parallel to D2AAK4 as internal controls in the binding assays are given in Supplementary Figure S1 (legend).

In another data set the target is human D3 receptor (Homo sapiens, UniProt P35462). As to the kind of experiment: Radioligand binding assay at human D3 receptor. Conditions: mean ± SEM, two independent experiments in duplicate; read-out: pKi hD3 (converted). The method, then:
as §1

Another data set addresses T2, human 5-HT1A receptor (Homo sapiens, UniProt P08908).
T2 construct: expressed in transfected cells
T2 sequence (P08908 1-422): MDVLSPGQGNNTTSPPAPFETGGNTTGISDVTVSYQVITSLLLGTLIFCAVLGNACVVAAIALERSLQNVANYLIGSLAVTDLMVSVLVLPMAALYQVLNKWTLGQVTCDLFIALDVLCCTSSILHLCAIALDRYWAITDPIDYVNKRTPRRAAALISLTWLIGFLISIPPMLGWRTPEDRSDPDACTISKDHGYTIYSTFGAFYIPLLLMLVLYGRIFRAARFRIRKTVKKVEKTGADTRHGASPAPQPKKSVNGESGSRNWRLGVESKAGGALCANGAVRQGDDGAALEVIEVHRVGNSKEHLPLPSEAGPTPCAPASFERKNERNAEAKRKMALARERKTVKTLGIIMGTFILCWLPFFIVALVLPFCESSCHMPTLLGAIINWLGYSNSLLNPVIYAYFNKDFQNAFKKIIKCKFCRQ
As to the kind of experiment: Radioligand binding assay at human 5-HT1A receptor. Conditions: mean ± SEM, read-out: % inh. at 10 μM (5-HT1A). The method, then: as §1

In data set [2] the target is T3, human 5-HT2A receptor (Homo sapiens, UniProt P28223).
T3 construct: expressed in transfected cells
Nature of the data set: Radioligand binding assay at human 5-HT2A receptor. The method, then:
as §1

A further data set concerns the target T4, human 5-HT7(a) receptor (Homo sapiens, UniProt P34969).
T4 construct: expressed in transfected cells
As to the kind of experiment: Radioligand binding assay at human 5-HT7 receptor. As to conditions: mean ± SEM; full displacement not achieved at maximum concentration, pKi could be not accurately estimated; read-out: pKi h5-HT7 (converted). Here is the method: as §1

Another data set has as its target T5, human H1 receptor (Homo sapiens, UniProt P35367).
T5 construct: expressed in transfected cells
As to the kind of experiment: Radioligand binding assay at human H1 receptor. As to conditions: mean ± SEM, two independent experiments in duplicate; read-out: pKi hH1 (converted). Here is the method: as §1

For a further data set, the target named is T6, human M1 receptor (Homo sapiens, UniProt P11229).
T6 sequence (P11229 1-460): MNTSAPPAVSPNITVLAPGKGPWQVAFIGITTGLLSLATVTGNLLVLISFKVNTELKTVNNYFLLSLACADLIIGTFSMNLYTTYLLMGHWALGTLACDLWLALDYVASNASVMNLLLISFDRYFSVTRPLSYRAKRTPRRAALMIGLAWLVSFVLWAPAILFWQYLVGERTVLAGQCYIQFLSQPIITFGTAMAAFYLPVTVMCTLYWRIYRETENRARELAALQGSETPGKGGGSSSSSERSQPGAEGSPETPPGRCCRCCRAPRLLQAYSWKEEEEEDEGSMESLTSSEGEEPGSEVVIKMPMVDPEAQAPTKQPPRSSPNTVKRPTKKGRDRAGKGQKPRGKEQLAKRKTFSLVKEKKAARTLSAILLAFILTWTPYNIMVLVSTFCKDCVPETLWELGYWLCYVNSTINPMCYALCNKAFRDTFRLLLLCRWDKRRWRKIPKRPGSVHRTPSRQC
As to the kind of experiment: Radioligand binding assay at human M1 receptor. Conditions: mean ± SEM; full displacement not achieved at maximum concentration, pKi could be not accurately estimated; read-out: pKi hM1 (converted). The method, then:
as §1

In data set [3] the target is T1, human D2S receptor. Nature of the data set: Functional assay of cAMP signaling at D2 receptors (CHO-K1 cells). It counts as cell-based.
Description: Compound was initially assessed at 10 µM concentration either as agonist or as antagonist of 10 µM dopamine response. Dopamine (10 nM–1 mM) was used as reference agonist in these assays.
The target of data set [4] is T3, human 5-HT2A receptor. As to the kind of experiment: Functional assay of inositol phosphate (IP) production at 5-HT2A receptors (CHO-K1 cells). Format: cell-based.
In data set [5] the test system is mice. Nature of the data set: Motor coordination, rotarod and chimney tests. It counts as in vivo. Conditions: 100 mg/kg i.p., 60 min after injection. Here is the method: Motor coordination has been assessed in mice using the rotarod test and the chimney test using the same procedure as described in our earlier work. […] D2AAK1 was previously studied using the same dose so we decided to select the dose of 100 mg/kg.
For orientation: In the rotarod test animals must keep their balance on a rotating rod.

The subject of data set [6] is mice. As to the kind of experiment: Passive avoidance (PA) task, memory consolidation. It counts as in vivo. As to conditions: 100 mg/kg i.p. immediately after pretest, retest 24 h later; p < 0.0001 vs vehicle. Here is the method:
The PA apparatus was described previously. The PA procedure was also previously described.
Mice received D2AAK4 immediately after being pretested on Day 1, and then they were retested (without injections) 24 h later. The changes in PA performance were calculated as the difference between retention and training latencies (i.e., latency index (IL)). More specifically, IL was calculated for each animal and presented as the ratio (as described in [12, 29]).

Data set [7] relates to mice. As to the kind of experiment: Elevated plus maze (EPM) test. As to conditions: 100 mg/kg i.p., 30 and 60 min after administration. It counts as in vivo. Here is the method: The EPM apparatus was used as described previously. The EPM procedure was described in our previous papers. The percentage (%) of time spent in the open arms and % of entries into the open arms were calculated. Moreover, the number of entries into the closed arms was recorded as the motor activity indicator of tested mice.
To determine D2AAK4 acute effect on anxiety-like behavior, the studied compound (100 mg/kg; i.p.) (n = 8) or vehicle (i.p.) (n = 8) was injected 30 and 60 min before the EPM test.

The target of data set [8] is T1, human D2S receptor. As to conditions: 10 µM compound versus 10 µM dopamine, cAMP assay; cited from earlier work. Background: cAMP levels reflect the balance of adenylyl cyclase and phosphodiesterase activity.
Data set [9] concerns mice. As to the kind of experiment: Amphetamine-induced hyperactivity. As to conditions: 100 mg/kg i.p. coadministered with amphetamine 5 mg/kg s.c.; p < 0.001 vs amphetamine-treated group.
Data set [10] addresses T3, human 5-HT2A receptor. Conditions: atypical antipsychotics, literature values, no reference given; cited from earlier work.

Values joined by “and” are separate entries in the source; they are usually repeats but may differ in a detail not shown here. Equal entries are not always repeated.

By IC50 is commonly meant the midpoint of a concentration-inhibition curve.

T3 sequence (P28223 whole entry): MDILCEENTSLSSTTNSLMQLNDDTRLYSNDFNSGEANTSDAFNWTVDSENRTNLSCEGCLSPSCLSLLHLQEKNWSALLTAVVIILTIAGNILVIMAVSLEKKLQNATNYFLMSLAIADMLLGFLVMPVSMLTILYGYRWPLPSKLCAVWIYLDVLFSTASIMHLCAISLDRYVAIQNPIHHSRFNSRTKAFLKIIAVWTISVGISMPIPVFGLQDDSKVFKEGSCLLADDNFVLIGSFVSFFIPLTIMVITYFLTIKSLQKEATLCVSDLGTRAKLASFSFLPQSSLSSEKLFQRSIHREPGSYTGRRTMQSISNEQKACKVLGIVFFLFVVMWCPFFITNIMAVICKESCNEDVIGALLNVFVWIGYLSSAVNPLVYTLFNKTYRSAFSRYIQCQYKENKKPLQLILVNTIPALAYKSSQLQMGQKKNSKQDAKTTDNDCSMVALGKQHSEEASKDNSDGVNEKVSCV
T1 sequence (P14416 1-414 isoform P14416-2): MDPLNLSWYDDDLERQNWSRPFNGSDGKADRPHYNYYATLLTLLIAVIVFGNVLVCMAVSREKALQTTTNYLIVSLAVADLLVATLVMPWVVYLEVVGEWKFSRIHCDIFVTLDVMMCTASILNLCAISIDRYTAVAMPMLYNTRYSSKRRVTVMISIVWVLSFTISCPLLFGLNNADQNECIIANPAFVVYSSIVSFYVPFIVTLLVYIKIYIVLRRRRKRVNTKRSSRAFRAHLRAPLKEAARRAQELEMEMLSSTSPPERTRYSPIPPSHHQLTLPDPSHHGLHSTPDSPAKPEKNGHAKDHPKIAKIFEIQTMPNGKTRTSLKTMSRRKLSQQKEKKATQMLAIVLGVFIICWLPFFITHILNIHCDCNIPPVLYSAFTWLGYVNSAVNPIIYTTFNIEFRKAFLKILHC
T4 sequence (P34969 1-445 isoform P34969-2): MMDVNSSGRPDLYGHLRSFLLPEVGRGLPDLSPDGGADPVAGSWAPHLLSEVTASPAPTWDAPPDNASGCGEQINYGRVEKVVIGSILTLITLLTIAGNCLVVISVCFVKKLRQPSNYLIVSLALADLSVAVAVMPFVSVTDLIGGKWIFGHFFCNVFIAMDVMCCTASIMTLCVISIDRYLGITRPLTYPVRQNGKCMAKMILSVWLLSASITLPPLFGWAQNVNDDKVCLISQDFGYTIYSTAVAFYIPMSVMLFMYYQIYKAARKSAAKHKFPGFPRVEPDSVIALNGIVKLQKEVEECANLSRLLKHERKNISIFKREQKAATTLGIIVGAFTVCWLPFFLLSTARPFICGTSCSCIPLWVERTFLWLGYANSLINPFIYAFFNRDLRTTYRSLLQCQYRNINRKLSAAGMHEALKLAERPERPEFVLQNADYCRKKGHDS
Sequence of human D1 receptor (P21728 whole entry): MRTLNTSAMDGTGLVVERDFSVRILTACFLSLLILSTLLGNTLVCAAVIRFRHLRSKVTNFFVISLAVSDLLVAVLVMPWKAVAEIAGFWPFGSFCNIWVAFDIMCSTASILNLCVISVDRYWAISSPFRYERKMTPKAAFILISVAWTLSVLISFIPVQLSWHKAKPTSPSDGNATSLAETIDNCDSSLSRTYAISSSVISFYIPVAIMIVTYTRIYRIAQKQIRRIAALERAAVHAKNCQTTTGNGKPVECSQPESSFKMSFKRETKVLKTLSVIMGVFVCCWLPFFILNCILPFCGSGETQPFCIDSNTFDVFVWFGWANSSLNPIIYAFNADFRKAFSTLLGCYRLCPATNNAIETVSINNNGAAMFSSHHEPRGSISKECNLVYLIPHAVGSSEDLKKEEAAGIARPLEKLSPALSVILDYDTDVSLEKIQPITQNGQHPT
Sequence of human D3 receptor (P35462 whole entry): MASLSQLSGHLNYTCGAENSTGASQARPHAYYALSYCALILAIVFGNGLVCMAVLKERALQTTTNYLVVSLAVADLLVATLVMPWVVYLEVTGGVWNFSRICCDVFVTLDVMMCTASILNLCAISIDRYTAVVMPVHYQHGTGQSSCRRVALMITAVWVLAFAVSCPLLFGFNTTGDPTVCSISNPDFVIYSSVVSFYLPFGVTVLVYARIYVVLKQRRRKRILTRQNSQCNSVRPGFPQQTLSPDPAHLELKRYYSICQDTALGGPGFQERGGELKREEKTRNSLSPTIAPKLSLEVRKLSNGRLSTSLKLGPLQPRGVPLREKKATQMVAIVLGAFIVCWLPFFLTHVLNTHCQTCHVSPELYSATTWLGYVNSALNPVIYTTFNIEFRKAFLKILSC
T5 sequence (P35367 whole entry): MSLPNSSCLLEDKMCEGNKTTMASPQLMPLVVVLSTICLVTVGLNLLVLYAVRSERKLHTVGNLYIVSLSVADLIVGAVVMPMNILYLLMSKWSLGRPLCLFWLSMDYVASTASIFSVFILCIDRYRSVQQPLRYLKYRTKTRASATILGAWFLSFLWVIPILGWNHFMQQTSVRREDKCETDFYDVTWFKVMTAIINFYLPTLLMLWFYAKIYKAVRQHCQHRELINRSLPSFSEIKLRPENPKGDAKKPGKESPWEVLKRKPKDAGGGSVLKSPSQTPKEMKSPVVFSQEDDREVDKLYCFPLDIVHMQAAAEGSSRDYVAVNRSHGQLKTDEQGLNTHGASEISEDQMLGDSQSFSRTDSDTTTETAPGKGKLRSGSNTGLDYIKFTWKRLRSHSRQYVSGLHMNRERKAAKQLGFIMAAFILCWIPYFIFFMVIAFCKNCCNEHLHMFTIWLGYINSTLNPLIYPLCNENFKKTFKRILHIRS

Consider `O=C(Nc1ccccc1O)C1CCN(CCCn2c(=O)[nH]c3ccccc32)CC1` [D2AAK4, N-(2-hydroxyphenyl)-1-[3-(2-oxo-2,3-dihydro-1H-benzimidazol-1-yl)propyl]piperidine-4-carboxamide], for which the Ki at human D2S receptor [1] was 1.86 µM; at human D1 receptor, 2.51 µM; at human D3 receptor, 9.33 µM; at human 5-HT2A receptor [2] (mean ± SEM, three independent experiments in duplicate, read-out: pKi h5-HT2A (converted)), 0.49 µM; on human 5-HT7(a) receptor it was 6.61 µM; at human H1 receptor, 3.89 µM. The Ki on human M1 receptor was 3.89 µM. Also, the inhibition at 10 µM was found to be 9.7 ± 0.4% at human 5-HT1A receptor and 97.4 ± 1.6% at human 5-HT2A receptor [4] (CHO-K1, read-out: % inh. at 10 µM (inhibition of 5-HT response), h5-HT2A, 10 µM compound versus 1 µM 5-HT, IP assay). For the same compound, the “5-HT2A/D2 affinity ratio (Ki D2/Ki 5-HT2A), times higher affinity for 5-HT2A” value at human 5-HT2A receptor [2] (5-HT2A versus D2 receptor) is on record as 3.67 times. The “% inh. at 100 µM (inhibition of dopamine response), hD2” value at human D2S receptor [3] (100 µM compound (maximal assayed) versus 10 µM dopamine, cAMP assay) is 44%. Also, the inhibition at 100 µM on human D2S receptor [3] (CHO-K1, read-out: % inh. at 100 µM (inhibition of dopamine response), hD2, 100 µM compound (maximal assayed) versus 10 µM dopamine, cAMP assay) is 44.1 ± 1.5%. In addition, the “agonist efficacy at 5-HT2A (IP signaling)” value on human 5-HT2A receptor [4] (0.1 nM to 100 µM) was “unable to promote IP signaling”. Besides, at human 5-HT2A receptor [4] (versus 1 µM 5-HT-stimulated IP production, read-out: IC50, 5-HT2A antagonist), the 50% inhibitory concentration (IC50) worked out at 0.714 µM. Further, the “motor coordination in rotarod and chimney tests” value in the data set with mice [5] is recorded as “does not impair mouse motor coordination”. In addition, the “latency index (IL) values, memory consolidation” value in the data set on mice [6] is “statistically significant increase”. In addition, the “% of the time spent in the open arms” value in the data set on mice [7] (p < 0.0001) is “decrease”. In addition, the “% of the open arm entries” value in the data set on mice [7] (p = 0.0272 and p = 0.0092) was “decrease”. Moreover, at human D2S receptor [8], the “% inh. at 10 µM (inhibition of dopamine response), hD2” value was 12.1 ± 6.0% and 12%. Also, the amphetamine-induced hyperactivity result with mice [9] is on record as “decreased amphetamine-induced hyperactivity”.

Turning to `Cc1nc2n(c(=O)c1CCN1CCC(c3noc4cc(F)ccc34)CC1)CCCC2O` (stereo not shown) [paliperidone], the 5-HT2A/D2 affinity ratio on human 5-HT2A receptor [10] is on record as 2.16.

In the case of `O=C1Cc2cc(CCN3CCN(c4nsc5ccccc45)CC3)c(Cl)cc2N1` [ziprasidone], the 5-HT2A/D2 affinity ratio at human 5-HT2A receptor [10] is reported as ~ 5.60.
